From patent US8232273B2, “Heterocyclic compounds and methods of use” (Genentech, Inc., priority 2008, dated 2012)
Like-named read-outs stand apart in the source and are kept apart here.

What was measured:
[1] = target: T1, Bcl-xL (GST-Bcl-xL) (Homo sapiens, UniProt Q07817); test: TR-FRET binding assay, competition with F-Bak for the Bcl-xL binding site
[2] = target: T2, Bcl-2 (GST-Bcl-2) (Homo sapiens, UniProt P10415); test: TR-FRET binding assay, competition with F-Bak for the Bcl-2 binding site; settings: Bcl-2, for comparison (selectivity)
T2 construct: made in house
Protocol: For each assay plate, a probe/antibody and protein/antibody/probe mixture were included as a negative and a positive control, respectively. Fluorescence was measured on the Envision (Perkin Elmer) using a 340/35 nm excitation filter and 520/525 (F-Bak) and 495/510 nm (Tb-labeled anti-his antibody) emission filters. Dissociation constants (Ki) were determined using Wang's equation (see, Wang, Z. X. An exact mathematical expression for describing competitive binding of two different ligands to a protein molecule. FEBS Lett. 1995 360:111-114). The TR-FRET assay can be performed in the presence of varying concentrations of human serum (HS) or fetal bovine serum (FBS). For comparison, the measurement of the competition of compounds of the invention for other Bcl-2 family protein binding sites (e.g., Bcl-2, Mcl-1) using the TR-FRET binding assay was accomplish by substituting GST-Bcl-xL in the TR-FRET assay with other GST-labeled protein, e.g., GST-Bcl-2, GST-Mcl-1, prepared in-house.

[3] = test system: platelets; test: Cell viability assay for platelets (platelet rich plasma, CellTiter-Glo); type: cell-based; settings: approximately 4 hours at 37 C
Protocol: Platelet rich plasma (PRP) was incubated with a compound of the invention for approximately 4 hours at 37° C. After incubation, platelets were equilibrated to room temperature for 20 minutes and then and equal volume of CELL TITER-GLO™ reagent (Promega Corporation) was added. Samples were mixed for two minutes and then allowed to equilibrate for an additional 10 minutes at room temperature. The luminescence generated from the samples was quantitated using a LJL Analyst plate reader. Data analysis was performed using GraphPad Prism 4.0.

[4] = target: T1, Bcl-xL (GST-Bcl-xL); test: AlphaScreen Bcl-xL binding assay, competition with biotinylated Bim peptide; design: made in house; settings: values listed in the order of Table 1; read-out: Alphascreen results (IC50) against the Bcl-xL protein
Procedure, shortened: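 Acceptor beads with GST-Bcl-xL were combined with donor beads carrying biotinylated Bim peptide after each bead mix was preincubated 30 min at room temperature. Compounds in DMSO, 2-fold serially diluted, were incubated 30 min at room temperature before donor addition, with duplicate plates. Percent inhibition was taken against no-protein and DMSO controls, and IC50 was calculated.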

[5] = values listed in the order of Table 1, read-out: TR-FRET assay results (Ki), Bcl-xL

T1 sequence (Q07817 whole entry, species assumed): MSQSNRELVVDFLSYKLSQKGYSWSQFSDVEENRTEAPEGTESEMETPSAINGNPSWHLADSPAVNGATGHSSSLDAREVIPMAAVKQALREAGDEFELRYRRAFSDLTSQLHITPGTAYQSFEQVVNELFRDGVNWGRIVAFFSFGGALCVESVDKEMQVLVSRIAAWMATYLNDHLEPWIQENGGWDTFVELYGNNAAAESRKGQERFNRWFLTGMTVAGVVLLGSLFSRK
T2 sequence (P10415 whole entry, species assumed): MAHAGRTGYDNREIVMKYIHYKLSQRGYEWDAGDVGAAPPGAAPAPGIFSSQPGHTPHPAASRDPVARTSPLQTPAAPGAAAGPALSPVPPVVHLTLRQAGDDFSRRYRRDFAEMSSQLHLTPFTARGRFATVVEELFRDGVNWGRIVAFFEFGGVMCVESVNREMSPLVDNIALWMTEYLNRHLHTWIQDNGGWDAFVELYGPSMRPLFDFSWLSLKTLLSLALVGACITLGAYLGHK

| SMILES | Ki [1, 5] | Ki [2] | EC50 [3] | IC50 [4] | Ki ([1]; with 1% human serum (HS)) |
| --- | --- | --- | --- | --- | --- |
| CC(C)n1cnc2c(-c3ccc(OCCCc4sc(N5CCc6cccc(C(=O)Nc7nc8ccccc8s7)c6C5)nc4C(=O)O)cc3)ncnc21 [Example 52, 2-(8-(benzo[d]thiazol-2-ylcarbamoyl)-3,4-dihydroisoquinolin-2(1H)-yl)-5-(3-(4-(9-isopropyl-9H-purin-6-yl)phenoxy)propyl)thiazole-4-carboxylic acid] | 0.05 nM | 130 nM |  |  |  |
| CN(C)CCCNc1ncnc2c1cnn2-c1ccc(OCCCc2sc(N3CCc4cccc(C(=O)Nc5nc6ccccc6s5)c4C3)nc2C(=O)O)cc1 [Example 54, 2-(8-(benzo[d]thiazol-2-ylcarbamoyl)-3,4-dihydroisoquinolin-2(1H)-yl)-5-(3-(4-(4-(3-(dimethylamino)propylamino)-1H-pyrazolo[3,4-d]pyrimidin-1-yl)phenoxy)propyl)thiazole-4-carboxylic acid] | 0.05 nM |  | 132 nM |  |  |
| O=C(Nc1nc2ccccc2s1)c1cccc2c1CN(c1nc(C(=O)O)c(CCNS(=O)(=O)c3cccc([N+](=O)[O-])c3)s1)CC2 [Example 70, 2-[8-(Benzothiazol-2-ylcarbamoyl)-3,4-dihydro-1H-isoquinolin-2-yl]-5-[2-(3-nitro-benzenesulfonylamino)-ethyl]thiazole-4-carboxylic acid] | 40 nM | 500 nM |  | 260 nM |  |
| O=C(Nc1nc2ccccc2s1)c1cccc2c1CN(c1nc(C(=O)O)c(CCOc3ccccc3)s1)CC2 [Example 76, 2-(8-(benzo[d]thiazol-2-ylcarbamoyl)-3,4-dihydroisoquinolin-2(1H)-yl)-5-(2-phenoxyethyl)thiazole-4-carboxylic acid] |  | 350 nM |  |  |  |
| O=C(Nc1nc2ccccc2s1)c1cccc2c1CN(c1nc(C(=O)O)c(CCCOc3ccc(-c4csc5c(NCCCN6CCCC6)ncnc45)cc3)s1)CC2 [Example 78, 2-[8-(Benzothiazol-2-ylcarbamoyl)-3,4-dihydro-1H-isoquinolin-2-yl]-5-(3-{4-[4-(3-pyrrolidin-1-yl-propylamino)-thieno[3,2-d]pyrimidin-7-yl]-phenoxy}-propyl)-thiazole-4-carboxylic acid] | 0.05 nM |  | 3 nM |  |  |
| CN1CCN(c2ncnc3c(-c4ccc(OCCCc5sc(N6CCc7cccc(C(=O)Nc8nc9ccccc9s8)c7C6)nc5C(=O)O)cc4)csc23)CC1 [Example 79, 2-[8-(Benzothiazol-2-ylcarbamoyl)-3,4-dihydro-1H-isoquinolin-2-yl]-5-(3-{4-[4-(4-methyl-piperazin-1-yl)-thieno[3,2-d]pyrimidin-7]-phenoxy}-propyl)-thiazole-4-carboxylic acid] | 0.1 nM |  | 3 nM |  |  |
| N#Cc1nccnc1-c1ccc(OCCCc2sc(N3CCc4cccc(C(=O)Nc5nc6ccccc6s5)c4C3)nc2C(=O)O)cc1 [Example 86, 2-[8-(Benzothiazol-2-ylcarbamoyl)-3,4-dihydro-1H-isoquinolin-2-yl]-5-{3-[4-(3-cyano-pyrazin-2-yl)-phenoxy]-propyl}-thiazole-4-carboxylic acid] | 0.07 nM |  | 10 nM |  |  |
| CN1CCN(c2cccc(OCCCc3sc(N4CCc5cccc(C(=O)Nc6nc7ccccc7s6)c5C4)nc3C(=O)O)c2)CC1 [Example 87, 2-[8-(Benzothiazol-2-ylcarbamoyl)-3,4-dihydro-1H-isoquinolin-2-yl]-5-{3-[3-(4-methyl-piperazin-1-yl)-phenoxy]-propyl}-thiazole-4-carboxylic acid] | 0.05 nM |  | 3 nM |  |  |
| CN(C)CCOc1ccc(-c2ccc(OCCCc3sc(N4CCc5cccc(C(=O)Nc6nc7ccccc7s6)c5C4)nc3C(=O)O)cc2)nc1 [Example 90, 2-[8-(Benzothiazol-2-ylcarbamoyl)-3,4-dihydro-1H-isoquinolin-2-yl]-5-(3-{4-[5-(2-dimethylamino-ethoxy)-pyridin-2-yl]-phenoxy}-propyl)-thiazole-4-carboxylic acid] | 0.05 nM |  | 3 nM |  |  |
| CN(C)CCc1ccc(OCCCc2ccc(N3CCc4cccc(C(=O)Nc5nc6ccccc6s5)c4C3)nc2C(=O)O)cc1 [Example 102, 6-(8-(benzo[d]thiazol-2-ylcarbamoyl)-3,4-dihydroisoquinolin-2(1H)-yl)-3-(3-(4-(2-(dimethylamino)ethyl)phenoxy)propyl)picolinic acid] | 2 nM |  |  | 20 nM |  |
| CN(C)CCCc1ccc(OCCCc2sc(N3CCc4cccc(C(=O)Nc5nc6ccccc6s5)c4C3)nc2C(=O)O)c(F)c1 [Example 103, 2-(8-(benzo[d]thiazol-2-ylcarbamoyl)-3,4-dihydroisoquinolin-2(1H)-yl)-5-(3-(4-(3-(dimethylamino)propyl)-2-fluorophenoxy)propyl)thiazole-4-carboxylic acid] |  |  |  | 0.4 nM | 0.006 nM |
| CN1CCC(Nc2ccc(OCCCc3ccc(N4CCc5cccc(C(=O)Nc6nc7ccccc7s6)c5C4)nc3C(=O)O)cc2)CC1 [Example 104, 6-(8-(Benzo[d]thiazol-2-ylcarbamoyl)-3,4-dihydroisoquinolin-2(1H)-yl)-3-(3-(4-(1-methylpiperidin-4-ylamino)phenoxy)propyl)picolinic acid] | 1 nM |  |  | 9.6 nM |  |
| CN1CCN(c2cccc(OCCCc3ccc(N4CCc5cccc(C(=O)Nc6nc7ccccc7s6)c5C4)nc3C(=O)O)c2)CC1 [Example 105, 6-(8-(benzo[d]thiazol-2-ylcarbamoyl)-3,4-dihydroisoquinolin-2(1H)-yl)-3-(3-(3-(4-methylpiperazin-1-yl)phenoxy)propyl)picolinic acid] | 0.3 nM |  |  | 2.2 nM |  |
| CN1CCN(c2cc(F)c(OCCCc3sc(N4CCc5cccc(C(=O)Nc6nc7ccccc7s6)c5C4)nc3C(=O)O)cc2F)CC1 [Example 108, 2-(8-(benzo[d]thiazol-2-ylcarbamoyl)-3,4-dihydroisoquinolin-2(1H)-yl)-5-(3-(2,5-difluoro-4-(4-methylpiperazin-1-yl)phenoxy)propyl)thiazole-4-carboxylic acid] | 0.02 nM |  |  | 0.4 nM |  |
| O=C(Nc1nc2ccccc2s1)c1cccc2c1CN(c1ccc(CCCOc3ccnc(Cl)c3)c(C(=O)O)n1)CC2 [Example 109] | 0.6 nM |  |  | 10.6 nM |  |
| CN(C)CCOc1cnc(-c2ccc(OCCCc3ccc(N4CCc5cccc(C(=O)Nc6nc7ccccc7s6)c5C4)nc3C(=O)O)cc2)nc1 [Example 112, 6-(8-(benzo[d]thiazol-2-ylcarbamoyl)-3,4-dihydroisoquinolin-2(1H)-yl)-3-(3-(4-(5-(2-(dimethylamino)ethoxy)pyrimidin-2-yl)phenoxy)propyl)picolinic acid] | 0.2 nM |  |  | 0.45 nM |  |
| CN(C)CCOc1cccc(OCCCc2ccc(N3CCc4cccc(C(=O)Nc5nc6ccccc6s5)c4C3)nc2C(=O)O)c1 [Example 113, 6-(8-(benzo[d]thiazol-2-ylcarbamoyl)-3,4-dihydroisoquinolin-2(1H)-yl)-3-(3-(3-(2-(dimethylamino)ethoxy)phenoxy)propyl)picolinic acid] | 0.2 nM |  |  | 0.9 nM |  |
| O=C(Nc1nc2ccccc2s1)c1cccc2c1CN(c1nc(C(=O)O)c(CCCOc3ccc(OCCN4CCCC4)cc3)s1)CC2 [Example 114, 2-(8-(benzo[d]thiazol-2-ylcarbamoyl)-3,4-dihydroisoquinolin-2(1H)-yl)-5-(3-(4-(2-(pyrrolidin-1-yl)ethoxy)phenoxy)propyl)thiazole-4-carboxylic acid] | 0.04 nM |  |  | 0.14 nM |  |
| CN(C)CC#Cc1ccc(OCCCc2sc(N3CCc4cccc(C(=O)Nc5nc6ccccc6s5)c4C3)nc2C(=O)O)c(F)c1 [Example 116, 2-(8-(benzo[d]thiazol-2-ylcarbamoyl)-3,4-dihydroisoquinolin-2(1H)-yl)-5-(3-(4-(3-(dimethylamino)prop-1-ynyl)-2-fluorophenoxy)propyl)thiazole-4-carboxylic acid] | 0.004 nM |  |  | 0.2 nM |  |
| CN(C)CC#Cc1ccc(OCCCc2sc(N3CCc4cccc(C(=O)Nc5nc6ccccc6s5)c4C3)nc2C(=O)O)cc1F [Example 117, 2-(8-(benzo[d]thiazol-2-ylcarbamoyl)-3,4-dihydroisoquinolin-2(1H)-yl)-5-(3-(4-(3-(dimethylamino)prop-1-ynyl)-3-fluorophenoxy)propyl)thiazole-4-carboxylic acid] | 3 nM |  |  | 17 nM |  |
| CN(C)CC#Cc1cc(F)c(OCCCc2sc(N3CCc4cccc(C(=O)Nc5nc6ccccc6s5)c4C3)nc2C(=O)O)cc1F [Example 118, 2-(8-(benzo[d]thiazol-2-ylcarbamoyl)-3,4-dihydroisoquinolin-2(1H)-yl)-5-(3-(4-(3-(dimethylamino)prop-1-ynyl)-2,5-difluorophenoxy)propyl)thiazole-4-carboxylic acid] | 0.01 nM |  |  | 0.3 nM |  |
